Reference: the NIST ThermoML archive (doi:10.1016/j.jct.2005.01.002)
± gives the expanded uncertainty stated by the source.

What was measured:
[1] = 101.33 kPa, Liquid
[2] = xn = mol fraction of the nth substance listed; details: 101 kPa, Liquid

CCOCC [diethyl ether]
Details | mass density [kg/m3]
[1], 298.15 K | 707.79 ± 0.68

CCOCC [diethyl ether] + CN(C)C=O
[2], 298.15 K
Details | mass density [kg/m3]
x2 = 0.0575 | 720.7 ± 0.65
x2 = 0.1033 | 730.11 ± 0.63
x2 = 0.1606 | 742.64 ± 0.61
x2 = 0.2076 | 752.93 ± 0.59
x2 = 0.2524 | 762.76 ± 0.57
x2 = 0.2979 | 772.93 ± 0.56
x2 = 0.3683 | 788.85 ± 0.53
x2 = 0.4058 | 797.64 ± 0.52
x2 = 0.4414 | 805.85 ± 0.5
x2 = 0.4932 | 818.09 ± 0.48
x2 = 0.5094 | 821.95 ± 0.48
x2 = 0.53 | 826.82 ± 0.47
x2 = 0.5595 | 833.95 ± 0.45
x2 = 0.6229 | 849.26 ± 0.42
x2 = 0.643 | 854.21 ± 0.41
x2 = 0.717 | 872.52 ± 0.37
x2 = 0.7584 | 882.84 ± 0.35
x2 = 0.8124 | 896.81 ± 0.33
x2 = 0.8523 | 906.61 ± 0.31
x2 = 0.9295 | 926.56 ± 0.27
x2 = 0.9655 | 936.09 ± 0.25

CC(C)OC(C)C [diisopropyl ether]
[1]
Details | mass density [kg/m3]
298.15 K | 718.51 ± 0.66
313.15 K | 702.59 ± 0.68
328.15 K | 686.2 ± 0.7

CC(C)OC(C)C [diisopropyl ether] + CN(C)C=O
mass density [kg/m3], [2]
Details | 298.15 K | 313.15 K | 328.15 K
x2 = 0.0551 | 726.89 ± 0.64 | 711.08 ± 0.66 | 694.81 ± 0.67
x2 = 0.0998 | 733.84 ± 0.63 | 718.04 ± 0.64 | 701.68 ± 0.66
x2 = 0.1567 | 742.64 ± 0.61 | 726.81 ± 0.63 | 710.25 ± 0.64
x2 = 0.2133 | 751.81 ± 0.59 | 736.08 ± 0.61 | 719.61 ± 0.63
x2 = 0.2581 | 759.64 ± 0.58 | 743.93 ± 0.59 | 727.41 ± 0.61
x2 = 0.3049 | 767.92 ± 0.56 | 752.25 ± 0.58 | 735.75 ± 0.6
x2 = 0.3548 | 777.09 ± 0.54 | 761.49 ± 0.56 | 744.95 ± 0.58
x2 = 0.4003 | 785.84 ± 0.53 | 770.29 ± 0.55 | 753.71 ± 0.56
x2 = 0.4401 | 793.67 ± 0.51 | 778.18 ± 0.53 | 761.59 ± 0.55
x2 = 0.4868 | 803.29 ± 0.5 | 787.92 ± 0.52 | 771.3 ± 0.54
x2 = 0.5049 | 807.13 ± 0.49 | 791.8 ± 0.51 | 775.18 ± 0.53
x2 = 0.5285 | 812.21 ± 0.48 | 796.95 ± 0.5 | 780.34 ± 0.52
x2 = 0.5548 | 818.02 ± 0.47 | 802.83 ± 0.49 | 786.22 ± 0.51
x2 = 0.6182 | 832.62 ± 0.44 | 817.65 ± 0.46 | 801.09 ± 0.48
x2 = 0.653 | 840.97 ± 0.42 | 826.05 ± 0.44 | 809.51 ± 0.46
x2 = 0.7137 | 856.34 ± 0.39 | 841.67 ± 0.41 | 825.18 ± 0.43
x2 = 0.7611 | 869.01 ± 0.37 | 854.62 ± 0.39 | 838.24 ± 0.41
x2 = 0.801 | 880.32 ± 0.35 | 866.12 ± 0.37 | 849.8 ± 0.39
x2 = 0.8447 | 893.01 ± 0.32 | 879.09 ± 0.34 | 862.93 ± 0.36
x2 = 0.9027 | 911.02 ± 0.29 | 897.56 ± 0.31 | 881.59 ± 0.33
x2 = 0.9502 | 926.7 ± 0.26 | 913.74 ± 0.28 | 897.98 ± 0.3

CN(C)C=O [dimethylformamide]
[1]
Details | mass density [kg/m3]
298.15 K | 943.85 ± 0.23
313.15 K | 930.98 ± 0.25
328.15 K | 915.07 ± 0.27
343.15 K | 900.41 ± 0.29
358.15 K | 885.68 ± 0.32

CCCCCOCCCCC [dipentyl ether]
[1]
Details | mass density [kg/m3]
298.15 K | 778.96 ± 0.73
313.15 K | 768.65 ± 0.75
328.15 K | 756.32 ± 0.77
343.15 K | 743.97 ± 0.79
358.15 K | 731.37 ± 0.81

CCCOCCC [dipropyl ether]
[1]
Details | mass density [kg/m3]
298.15 K | 741.94 ± 0.64
313.15 K | 727.87 ± 0.66
328.15 K | 713.73 ± 0.67
343.15 K | 699.61 ± 0.69
358.15 K | 684.92 ± 0.7
